Results from paper PMC6832524, “A Nature-Inspired Design Yields a New Class of Steroids Against Trypanosomatids” (Molecules, 2019).
Where two headings read alike, the source gives them in different places.

What was measured:
[1] = system: T. cruzi epimastigotes, Tulahuen 2 strain (genotype TcVI); experiment: in vitro anti-T. cruzi activity, epimastigote growth (absorbance 600 nm); type: cell-based, Trypanosoma cruzi
Method: Control parasites were cultivated in 0.4% DMSO. Each concentration of the compound was evaluated in duplicate.

[2] = system: L. infantum (MHOM/BR/2002/LPC-RPV) promastigotes; experiment: in vitro anti-Leishmania activity, promastigotes, resazurin; type: cell-based, Leishmania infantum
[3] = system: L. infantum .uy (parasites isolated from two dogs in the first Leishmaniasis outbreak in Uruguay); experiment: in vitro activity against L. infantum isolated from dogs in Uruguay; type: cell-based, Leishmania infantum; conditions: for IC50: Leishmania infantum, read-out: IC50 ± %SD (µM) L. infantum .uy
Method: Compounds were dissolved in dimethylsulfoxide (DMSO).
For assessing the amastigote form of all Leishmania strains were cultured in the RPMI described above. Parasites were seeded at 1 × 10^6 cells/mL and at each time point counted at least five times to obtain a growth curve. […] Control conditions of parasites without drug (100% growth) and medium without parasites were included. After 72 h at 28 °C parasite viability was determined by the resazurin method described. Infection with L. infantum. THP-1 monocytes (ATCC®TIB-202™) were grown following ATCC recommendations and seeded at 30,000 cells/well onto 18-mm round glass coverslips in 12 wells. For stimulation cells were incubated with 100 nM of PMA for 48 h, PMA was washed and cells left with growth media for 24 h more after incubation with parasites. 30,000 parasites/well were added and left to interact. After 48 h, coverslips were washed with PBS, fixed with 95% (v/v) ethanol, and stained with Fluoroshield™ with DAPI (Sigma). Infectivity was assessed considering invasion and replication capacity counting infected cells and parasites per infected cell, respectively. Infectivity index calculation = (% of infected cells X (amastigotes per cell))/number of total counted cells. Image acquisition was made with a Leica TCS-SP5 laser scanning confocal microscope (Leica Microsystems GmbH, Wetzlar, Germany) using the LASAF v.2 software (Leica Microsystems, Wetzlar, Germany) and observed using a 356 nm laser excitation line and an emission bandwidth from 461 nm under a 20× water immersion objective. Further image analysis, including quantitation and processing of figures were made using Fiji (http://fiji.sc/).

[4] = system: J774.1 murine macrophages; experiment: nonspecific cytotoxicity on mammalian cells, MTT; type: cell-based; conditions: for IC50: Mus musculus, J774.1, 48 h, MTT, read-out: IC50 ± SD (µM) Murine Macrophages; for SI J774.1/T. cruzi: ratio IC50 murine macrophages / IC50 T. cruzi epimastigotes; for SI J774.1/L. amazonensis: ratio IC50 murine macrophages / IC50 L. amazonensis promastigotes
solubility (qualitative) = type: physicochemical; conditions: for solubility in the conditions of the mammalian cell assay, in words: maximum dose tested 25 µM
[5] = system: promastigotes L. braziliensis/ L. amazonensis; experiment: in vitro anti-Leishmania activity, promastigotes (Table 1S); type: cell-based; conditions: read-out: IC50 ± %SD (µM) promastigotes L. braziliensis/ L. amazonensis
[6] = system: L. infantum .uy (parasites isolated from two dogs in the first Leishmaniasis outbreak in Uruguay); experiment: in vitro activity against L. infantum isolated from dogs in Uruguay; type: cell-based, Leishmania infantum; conditions: read-out: IC50± %SD (µM) promastigotes L. infantum uy*p/c
[7] = system: T. cruzi blood trypomastigotes of the Y strain; experiment: in vivo anti-T. cruzi study (acute Chagas model); design: species or system Trypanosoma cruzi; conditions: BALB/c mice, 50 mg/kg/day oral for 14 days; for Number of Parasites (Chagas): peak of parasitemia; for % of Reduction (Chagas): reduction of parasitemia vs control
[8] = system: L. amazonensis (promastigotes); experiment: in vitro anti-Leishmania activity, promastigotes, resazurin; type: cell-based; conditions: maximum dose tested 25 µM, read-out: IC50 ± %SD (µM) L. amazonensis
[9] = system: L. infantum amastigotes in human macrophages (THP-1); experiment: human macrophages infected with L. infantum (amastigotes), infectivity index; type: cell-based; conditions: Leishmania infantum, two strains of L. infantum (reference strain and isolated from dogs)
[10] = system: primary culture of macrophages from mice bone marrow; experiment: cytotoxicity on primary culture of macrophages, MTT; type: cell-based; conditions: 25 µM, 48 h, compared with J774.1
[11] = system: L. amazonensis (IFLA/BR/1967/PH8); experiment: in vivo anti-Leishmania study in cutaneous mice model; design: species or system Leishmania amazonensis; conditions: BALB/c mice, 50 mg/kg oral
[12] = liver fraction stability study (TLC); type: in vitro ADME; conditions: rat liver fractions, 400 µM, 37 °C, 4 h
[13] = in vivo acute oral toxicity (OECD up and down); conditions: male, B6D2F1, mouse, 2000 mg/kg
Method: Briefly, healthy young adult male B6D2F1 mice (30 days old, 25 to 30 g) were used in this study. Initially, the compound was dissolved in the vehicle described above (3.4 section) and was administered at 2000 mg/kg, by orogastric cannula, to one animal. The animal was fasted, maintained, and observed for 48 h. If the mouse survives, another animal receives the same dose, and 48 h later, a third animal. If there are no toxicity signs the experiment is finished 14 days after administration, with the euthanasia of the animals according to the OECD guidelines. Observations of the general status of the organs were performed after sacrifice.

[14] = system: L. infantum, L. braziliensis, L. amazonensis promastigotes and T. cruzi epimastigotes; experiment: phenotypic screening against parasites in vitro (overall statements)
Method: For the in vitro anti-T. cruzi activity, we used epimastigotes of the Tulahuen 2 strain (genotype TcVI) grown in an axenic milieu (BHI-Tryptose). Cells from a 5–7-days-old culture were inoculated in fresh culture milieu to give an initial concentration of 10^6 cells/mL. The absorbance at 600 nm of the cells in culture was measured every day. […] Control parasites were cultivated in 0.4% DMSO. Each concentration of the compound was evaluated in duplicate. At five days, the absorbance of the culture was measured and compared to the control and the IC50 values calculated for each compound using OriginLab8.5® sigmoidal regression.

[15] = Trypanosoma cruzi, TULAHUEN, epimastigotes, maximum dose tested 25 µM, read-out: IC50 ± %SD (µM) T. cruzi
[16] = Leishmania infantum, promastigotes, maximum dose tested 25 µM, read-out: IC50 ± %SD (µM) L. infantum
[17] = Table 1S, read-out: IC50 ± %SD (µM) epimastigotes T. cruzi
[18] = Table 1S, read-out: IC50 ± %SD (µM) promastigotes L. infantum
[19] = Table 1S, one value printed for p/c
[20] = Trypanosoma cruzi, TULAHUEN, Table 1S, read-out: IC50 ± %SD (µM) epimastigotes T. cruzi

With C/C(=N\NC(=S)Nc1ccccc1)[C@H]1CC[C@H]2[C@@H]3CC=C4CC(O)CC[C@]4(C)[C@H]3CC[C@]12C (stereo partly drawn) [Compound 10, 1-(3β-Hydroxy-pregn-5-ene-20E-ylidene)-4-phenylthiosemicarbazone] the IC50 [1, 15] was 25 ± 3 µM, the IC50 [2, 16] was greater than 25 µM and the IC50 [3] was greater than 25 µM. For the same molecule, the IC50 [4] was 25 ± 5 µM, the “SI J774.1/T. cruzi” value [4] was 1 and the “solubility in the conditions of the mammalian cell assay, in words” value (solubility (qualitative)) was “poorly soluble”. For the same molecule, the melting point was 215 to 217 °C.

With CSc1ccc(/C=C/C(=O)[C@H]2CCC3C4CC=C5C[C@@H](O)CC[C@]5(C)C4CC[C@@]32C)cc1 (stereo partly shown) [Compound 15] the IC50 [1, 17] was greater than 25 µM, the IC50 [2, 18] was greater than 25 µM and the IC50 [5] was greater than 25 µM. The IC50 [6, 19] was greater than 25 µM.

Work on CC(/C=C/C(=O)[C@H]1CC[C@H]2[C@@H]3CC=C4CC(O)CC[C@]4(C)[C@H]3CC[C@]12C)=C\c1ccco1 (stereo partly drawn) [Compound 16, (2E,4E)-5-(furan-2-yl)-1-((8S,9S,10R,13S,14S,17S)-3-hydroxy-10,13-dimethyl-2,3,4,7,8,9,10,11,12,13,14,15,16,17-tetradecahydro-1H-cyclopenta[a]phenanthren-17-yl)-4-methylpenta-2,4-dien-1-one] yielded an IC50 [1, 20] greater than 25 µM, an IC50 ([2]; Leishmania infantum, Table 1S, read-out: IC50 ± %SD (µM) promastigotes L. infantum) greater than 25 µM and an IC50 [5] of 23 ± 3 µM. For the same molecule, the melting point was 110 to 113 °C and the IC50 ([6]; Leishmania infantum) was greater than 25 µM.

In the case of O=C(Cn1ccnc1[N+](=O)[O-])NCc1ccccc1 [Benznidazole, reference compound], the IC50 [4] is reported as 400 ± 4 µM, the “SI J774.1/T. cruzi” value [4] is reported as 57 and the “% of Survivals (Chagas)” value [7] is reported as 100%. For the same molecule, the “Number of Parasites (Chagas)” value [7] was “(0.01 ± 0.01) × 10^6 per mL blood” and the “% of Reduction (Chagas)” value [7] was 96%.

Work on C[C@]12CC[C@H]3[C@@H](CC=C4CC(O)CC[C@@]43C)[C@@H]1CC[C@@H]2C(=O)/C=C/C=C/c1cccs1 (stereo partly drawn) [Compound 17, (2E,4E)-5-(thiofen-2-yl)-1-((8S,9S,10R,13S,14S,17S)-3-hydroxy-10,13-dimethyl-2,3,4,7,8,9,10,11,12,13,14,15,16,17-tetradecahydro-1H-cyclopenta[a]phenanthren-17-yl)penta-2,4-dien-1-one] yielded an IC50 [1, 17] greater than 25 µM, an IC50 [2, 18] greater than 25 µM and an IC50 [5] greater than 25 µM. For the same molecule, the IC50 [6, 19] was greater than 25 µM.

In the case of C=CCNC(=S)N/N=C(\C)[C@H]1CC[C@H]2[C@@H]3CC=C4CC(O)CC[C@]4(C)[C@H]3CC[C@]12C (stereo partly drawn) [Compound 9, 1-(3β-Hydroxy-pregn-5-ene-20E-ylidene)-4-Allylthiosemicarbazone], the IC50 [1, 20] is reported as 7.8 µM, the IC50 [1, 15] is reported as 8 ± 2 µM and the “activity against Leishmania infantum from Fiocruz collection, in words” value [2] is reported as “active”. For the same molecule, the IC50 [2, 16] was greater than 25 µM, the “active against the strains isolated from Uruguayan dogs, in words” value [3] was “not” and the IC50 [3] was greater than 25 µM. For the same molecule, the IC50 [4] was 25 ± 2 µM, the “SI J774.1/T. cruzi” value [4] was 3 and the “solubility in the conditions of the mammalian cell assay, in words” value (solubility (qualitative)) was “poorly soluble”. For the same molecule, the melting point was 229 to 233 °C.

In the case of C[C@]12CC[C@H]3[C@@H](CC=C4CC(O)CC[C@@]43C)[C@@H]1CC[C@@H]2C(=O)/C=C/c1ccccc1Cl (stereo partly shown) [Compound 2], the IC50 [1, 15] is reported as 12 ± 3 µM, the IC50 [8] is reported as 23 ± 5 µM and the “activity against Leishmania infantum from Fiocruz collection, in words” value [2] is reported as “active”. The IC50 [2, 16] was greater than 25 µM, the “active against the strains isolated from Uruguayan dogs, in words” value [3] was “not” and the IC50 [3] was greater than 25 µM. For the same molecule, the IC50 [4] was 100 ± 10 µM, the “SI J774.1/L. amazonensis” value [4] was 4 and the “SI J774.1/T. cruzi” value [4] was 8. For the same molecule, the IC50 [5] was 23 ± 5 µM and the melting point was 149 to 151 °C.

Work on C/C(=N\NC(N)=S)[C@H]1CC[C@H]2[C@@H]3CC=C4CC(O)CC[C@]4(C)[C@H]3CC[C@]12C (stereo partly drawn) [Compound 8, 1-(3β-Hydroxy-pregn-5-ene-20E-ylidene)thiosemicarbazone] yielded an IC50 [1, 15] of 1.2 ± 0.3 µM, an IC50 [8] of less than 22 µM and an IC50 [2, 16] of 0.2 ± 0.1 µM. The IC50 [3] was 0.2 ± 0.1 µM, the IC50 [9] was less than 0.2 µM and the IC50 [4] was 50 ± 3 µM. For the same molecule, the “SI J774.1/L. amazonensis” value [4] was greater than 2, the “SI J774.1/L. infantum” value ([4]; ratio IC50 murine macrophages / IC50 L. infantum promastigotes) was 250 and the “SI J774.1/T. cruzi” value [4] was 42. For the same molecule, the “cytotoxicity on primary culture of macrophages, in words” value [10] was “the same results were obtained”, the “% of Survivals (Chagas)” value [7] was 100% and the “Number of Parasites (Chagas)” value [7] was “(0.14 ± 0.03) × 10^6 per mL blood”. For the same molecule, the “% of Reduction (Chagas)” value [7] was 62%, the “% of Reduction (Leishmaniasis)” value [11] was 27% and the “% of Survivals (Leishmaniasis)” value [11] was 100%. The “Number of Parasites (Leishmaniasis)” value ([11]; parasites in the lesion at the end of the experiment) was “(21 ± 4) × 10^6”, the “metabolic stability in cytosolic and microsomal liver fraction” value [12] was “stable” and the “solubility in water, in words” value (solubility (qualitative)) was “poor solubility in water”. It also gave an IC50 [5] of less than 22 µM, an LD50 at 14 days [13] greater than 2000 mg/kg and an IC50 ([14]; Trypanosoma cruzi, read-out: IC50 in vitro (abstract)) of 0.2 µM. The “times more active than Miltefosine in vitro” value ([14]; against Leishmania) was “five times more active”, the “times more active than Nfx and Bnz in vitro” value ([14]; against T. cruzi) was 35 and the “antiparasitic activity (active: IC50<25 µM), in words” value ([14]; all parasites/strains tested, maximum dose 25 µM) was “consistently active against all strains”.
